Like-named read-outs stand apart in the source and are kept apart here.
Experiments:
[1] = tested on: Cabbage Looper (Trichoplusia ni) ("CL"), second instar larvae; experiment: Bioassay on cabbage looper (CL), 128-well diet tray assay; type: in vivo; details: for pest or weed control at 50 µg/cm2: Trichoplusia ni; for CL rating: Table ABC, species CL, C = not tested, D = no activity noticed
Outline: (§1)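 Read-out: percent larval mortality per well, averaged over 8 wells. Incubation 25° C., 14:10 L:D photoperiod, 5–7 days, trays sealed with clear adhesive cover.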

[2] = tested on: Beet Armyworm (Spodoptera exigua) ("BAW"), second instar larvae; experiment: Bioassay on beet armyworm (BAW), 128-well diet tray assay; type: in vivo; details: for pest or weed control at 50 µg/cm2: Spodoptera exigua; for BAW rating: Table ABC, species BAW, C = not tested, D = no activity noticed
Outline: as §1

[3] = read-out: CL (Biological Results, rating)
[4] = read-out: BAW (Biological Results, rating)

SMILES	pest or weed control at 50 µg/cm2 [1, 3] [%]	pest or weed control at 50 µg/cm2 [2, 4] [%]	pest or weed control at 50 µg/cm2 ([1]; read-out: CL rating) [%]	pest or weed control at 50 µg/cm2 ([2]; read-out: BAW rating) [%]	also measured
Cc1ccc(-n2cnc(-c3ccc(NC(=O)/N=C4\SCC(=O)N4c4cc(N(C)C)ccc4C(C)C)c(F)c3)n2)cc1 [Compound J150, (Z)-1-(3-(5-(Dimethylamino)-2-isopropylphenyl)-4-oxothiazolidin-2-ylidene)-3-(2-fluoro-4-(1-(p-tolyl)-1H-1,2,4-triazol-3-yl)phenyl)urea]	50 to 100	50 to 100	–	–	–
Cc1ccc(OCCC(F)(F)F)c(N2C(=O)CS/C2=N\C(=O)Nc2ccc(-n3cnc(-c4ccc(C(F)(F)F)cc4)n3)cc2F)c1 [Compound J702, (Z)-1-(2-Fluoro-4-(3-(4-(trifluoromethyl)phenyl)-1H-1,2,4-triazol-1-yl)phenyl)-3-(3-(5-methyl-2-(3,3,3-trifluoropropoxy)phenyl)-4-oxothiazolidin-2-ylidene)urea]	–	–	50 to 100	50 to 100	–
CCCc1ccc(N(C)C)cc1N1C(=O)CS/C1=N\C(=O)Nc1ccc(-c2ncn(-c3ccc(C(F)(F)F)cn3)n2)cc1C [Compound J294, (Z)-1-(3-(5-(Dimethylamino)-2-propylphenyl)-4-oxothiazolidin-2-ylidene)-3-(2-methyl-4-(1-(5-(trifluoromethyl)pyridin-2-yl)-1H-1,2,4-triazol-3-yl)phenyl)urea]	50 to 100	50 to 100	–	–	–
COc1ccc(C(C)C)c(N2C(=O)CS/C2=N\C(=O)Nc2ccc(-c3ncn(-c4ccc(OC(F)(F)C(F)(F)F)cc4)n3)c(C)c2)c1 [Compound J7, (Z)-1-(3-(2-Isopropyl-5-methoxyphenyl)-4-oxothiazolidin-2-ylidene)-3-(3-methyl-4-(1-(4-(perfluoroethoxy)phenyl)-1H-1,2,4-triazol-3-yl)phenyl)urea]	50 to 100	50 to 100	–	–	–
Cc1ccc(COCC(F)(F)F)c(N2C(=O)CS/C2=N\C(=O)Nc2ccc(-c3ncn(-c4ccc(OCC(F)(F)F)nc4)n3)cc2F)c1 [Compound J765, (Z)-1-(2-Fluoro-4-(1-(6-(2,2,2-trifluoroethoxy)pyridin-3-yl)-1H-1,2,4-triazol-3-yl)phenyl)-3-(3-(5-methyl-2-((2,2,2-trifluoroethoxy)methyl)phenyl)-4-oxothiazolidin-2-ylidene)urea]	–	–	50 to 100	50 to 100	–
Cc1ccc(C(F)(F)F)c(N2C(=O)C(Cl)S/C2=N\C(=O)Nc2ccc(-c3ncn(-c4ccc(OC(F)(F)F)cc4)n3)cc2F)c1 (centres unmarked) [Compound J34, (Z)-1-(5-Chloro-3-(5-methyl-2-(trifluoromethyl)phenyl)-4-oxothiazolidin-2-ylidene)-3-(2-fluoro-4-(1-(4-(trifluoromethoxy)phenyl)-1H-1,2,4-triazol-3-yl)phenyl)urea]	50 to 100	50 to 100	–	–	–
COc1cc(COCC(F)(F)F)c(N2C(=O)CS/C2=N\C(=O)Nc2ccc(-c3ncn(-c4ccc(S(F)(F)(F)(F)F)cc4)n3)cc2C#N)cc1OC [Compound J588, (Z)-1-(2-Cyano-4-(1-(4-(pentafluoro-λ^6-sulfaneyl)phenyl)-1H-1,2,4-triazol-3-yl)phenyl)-3-(3-(4,5-dimethoxy-2-((2,2,2-trifluoroethoxy)methyl)phenyl)-4-oxothiazolidin-2-ylidene)urea]	–	–	50 to 100	50 to 100	–
CC(C)c1ccc(N(C)C)cc1N1C(=O)CS/C1=N\C(=O)Nc1ccc(-c2ncn(-c3ccc(SC(F)(F)F)cc3)n2)cc1F [Compound J334, (Z)-1-(3-(5-(Dimethylamino)-2-isopropylphenyl)-4-oxothiazolidin-2-ylidene)-3-(2-fluoro-4-(1-(4-((trifluoromethyl)thio)phenyl)-1H-1,2,4-triazol-3-yl)phenyl)urea]	50 to 100	50 to 100	–	–	–
COC(c1ccc(C)cc1N1C(=O)CS/C1=N\C(=O)Nc1ccc(-c2cn(-c3ccc(C(F)(F)F)cn3)cn2)cc1F)C(F)(F)F (centres unmarked) [Compound J485, (Z)-1-(2-Fluoro-4-(1-(5-(trifluoromethyl)pyridin-2-yl)-1H-imidazol-4-yl)phenyl)-3-(3-(5-methyl-2-(2,2,2-trifluoro-1-methoxyethyl)phenyl)-4-oxothiazolidin-2-ylidene)urea]	–	–	50 to 100	50 to 100	–
CC(C)c1ccc(N(C)C)cc1N1C(=O)CS/C1=N\C(=O)Nc1ccc(-c2ncn(-c3cccc(OC(F)(F)F)c3)n2)cc1F [Compound J155, (Z)-1-(3-(5-(Dimethylamino)-2-isopropylphenyl)-4-oxothiazolidin-2-ylidene)-3-(2-fluoro-4-(1-(3-(trifluoromethoxy)phenyl)-1H-1,2,4-triazol-3-yl)phenyl)urea]	50 to 100	50 to 100	–	–	–
CCOc1ccc(-n2cnc(-c3ccc(NC(=O)/N=C4\SCC(=O)N4c4cc(C)c(C)cc4COCC(F)(F)F)c(F)c3)n2)cc1 [Compound J620]	–	–	–	–	CL rating [1]: A (50-100); BAW rating [2]: A (50-100)
Cc1ccc(OCC(F)(F)F)c(N2C(=O)CS/C2=N\C(=O)Nc2ccc(-c3ncn(-c4ccc(OC(F)(F)F)cc4)n3)cc2C(F)F)c1 [Compound J212, (Z)-1-(2-(Difluoromethyl)-4-(1-(4-(trifluoromethoxy)phenyl)-1H-1,2,4-triazol-3-yl)phenyl)-3-(3-(5-methyl-2-(2,2,2-trifluoroethoxy)phenyl)-4-oxothiazolidin-2-ylidene)urea]	50 to 100	50 to 100	–	–	–
Cc1ccc(OCCC(F)(F)F)c(N2C(=O)C(Cl)S/C2=N\C(=O)Nc2ccc(-c3ncn(-c4ccc(C(F)(F)F)cc4)n3)cc2)c1 (centres unmarked) [Compound J317, (Z)-1-(5-Chloro-3-(5-methyl-2-(3,3,3-trifluoropropoxy)phenyl)-4-oxothiazolidin-2-ylidene)-3-(4-(1-(4-(trifluoromethyl)phenyl)-1H-1,2,4-triazol-3-yl)phenyl)urea]	50 to 100	50 to 100	–	–	–
Cc1ccc(COCC(F)F)c(N2C(=O)CS/C2=N\C(=O)Nc2ccc(-c3nnn(-c4ccc(OC(F)(F)F)cc4)n3)cc2)c1 [Compound J768, (Z)-1-(3-(2-((2,2-Difluoroethoxy)methyl)-5-methylphenyl)-4-oxothiazolidin-2-ylidene)-3-(4-(2-(4-(trifluoromethoxy)phenyl)-2H-tetrazol-5-yl)phenyl)urea]	–	–	50 to 100	50 to 100	–
Cc1ccc(COCC(F)(F)F)c(N2C(=O)CS/C2=N\C(=O)Nc2ccc(-c3ncn(-c4ccc(S(F)(F)(F)(F)F)cc4)n3)cc2C#N)c1 [Compound J569, (Z)-1-(2-Cyano-4-(1-(4-(pentafluoro-λ^6-sulfaneyl)phenyl)-1H-1,2,4-triazol-3-yl)phenyl)-3-(3-(5-methyl-2-((2,2,2-trifluoroethoxy)methyl)phenyl)-4-oxothiazolidin-2-ylidene)urea]	–	–	50 to 100	50 to 100	–
Cc1ccc(COCC(F)(F)F)c(N2C(=O)CS/C2=N\C(=O)Nc2ccc(-c3ncn(-c4ccc(S(F)(F)(F)(F)F)cc4)n3)cc2C)c1 [Compound J549]	–	–	–	–	CL rating [1]: A (50-100); BAW rating [2]: A (50-100)
